# Measured values reported in patent US20170056524A1, “COMPOSITIONS AND METHODS FOR TARGETED EPIGENETIC MODIFICATION” (THE TRUSTEES OF THE UNIVERSITY OF PENNSYLVANIA, priority 2014, published 2017).
# Entries after “also recorded” stand apart in the source; their conditions may differ.
# Assays:
# [1] = system: p16 TALE-DNMT (24-repeat TALE fused to DNMT3a-3L) (Xanthomonas TALE / DNMT3a-DNMT3L, engineered?); assay: cell_activity; conditions: HeLa transfection, 48 h, bisulfite sequencing, vs E752A mutant; up to 66.5% at individual CpGs
# [2] = system: p16 jTALE-DNMT (18-repeat TALE fused to DNMT3a-3L) (Xanthomonas TALE / DNMT3a-DNMT3L, engineered?); assay: cell_activity; conditions: primary human fibroblasts, lentivirus, 4 days, vs mutant; p16 mRNA decreased about 50%; also active in HeLa and hCASMC
# human β-cells = assay: RNA-Seq of FACS-sorted β-cells from Adox-treated human islets; format: cell-based; conditions: Adox-treated β-cells (Adox-β/α vs β/α ratio)
# Description: (§1) After total RNA extraction (see above), RNA-Seq libraries were prepared from sorted alpha, beta, and exocrine cells. The detailed protocol can be found on http://ngsc.med.upenn.edu (Lab protocol, Library preparation for RNA-Seq from total RNA). Libraries were single-end sequenced to 100 bp on an Illumina hiSeq2000. Reads from ribosomal RNA and genomic repeats were identified by aligning the 5′ 50 bp of each read to ribosomal sequences and the human repeats in RepBase (version 14.10) using Bowtie (Langmead B., Curr. Protoc. Bioinformatics. 201, December Chapter 11: Unit 117) and allowing for up to three mismatches. The remaining reads were processed with RUM (Grant et al., Bioinformatics 2011. Sep. 15, 27(18): 2518-28) and aligned to the set of known transcripts included in RefSeq, UCSC known genes, and ENSEMBL transcripts, and the human genome (hg18, NCBI build 36.1). Transcript-, exon-, and intron-level quantification was done using only the uniquely aligning reads. This process was repeated separately for each cell type and donor.
# (§2) To analyze global gene expression profiles from each sample, RNA-seq read counts aligning to exons of mRNA transcripts in RefSeq were extracted, and these values were normalized to total uniquely aligning reads and transcript length (RPKM). Data for individual genes was summarized by selecting a “representative transcript” with the highest RPKM value for each gene symbol (total=18,822 genes). Gene-level data was then quantile-normalized across all samples to remove bias from the variable expression levels of highly expressed genes, e.g., insulin, glucagon, and highly expressed ncRNAs, which dampen the relative signal of all other genes. Finally, quantile-normalized gene expression values were averaged together for samples of the same cell type to produce a single average gene profile for each cell type. These values were used for all subsequent analyses, including expression comparisons for individual genes of interest.
# (§3) Human islets and islets from GlucagonCre; Rosa26EYFP bigenic mice (Herrera et al., 2000; Srinivas et al., 2001) were cultured, treated with 50μM adenosine dialdehyde (Adox, Sigma A7154) for 72 h, FACS sorted as described previously (11), or prepared for immunostaining.
# (§4) To investigate the transcriptional changes in Adox-treated human islets and confirm increased PDX1 expression, FACS analysis after Adox-treatment was performed using the same antibody panel as described above, followed by RNA-Seq analysis (n=2 treated α, n=2 treated β, technical replicates) and focused on cell-type-specific hormones and transcription factors. To assess whether Adox-treated β-cells become more α-cell like or vice versa, the ratio of expression levels in untreated β-cells and untreated α-cells (β/α) were first compared to the ratio in Adox-treated β-cells and untreated α-cells (Adox-β/α) (FIG. 6E). A decrease in NKX6-1 and MAFA levels, an increase in PDX1 levels and no change in insulin expression were found and no change in the expression levels of the α-cell specific genes glucagon or ARX were observed, giving no indication for a gain of α-cell identity. Second, the ratio of expression values in untreated α-cells and untreated β-cells (α/β) were compared to the ratio in Adox-treated α-cells and untreated β-cells (Adox-α/β) to elucidate whether Adox-treated α-cells become more ‘β-cell like’ (FIG. 6F).
# human α-cells = assay: RNA-Seq of FACS-sorted α-cells from Adox-treated human islets; format: cell-based; conditions: Adox-treated α-cells (Adox-α/β vs α/β ratio)
# Description: as §1, §2, §3, §4
# H3K27me3 = H3K27me3 ChIP-Seq of whole human islets cultured in the absence or presence of Adox; format: cell-based
# Description: Chromatin immunoprecipitation and preparation of ChIP-Seq libraries was performed on individual cell sorts for each cell type and donor (H3K4me3: Abcam 8580, H3K27me3: Upstate 07-449).
# Libraries for H3K4me3, H3K27me3, and input were sequenced on an Illumina GA-IIx to 36 bp. Reads were aligned to hg18 using ELAND. Up to two mismatches were allowed and only reads with a best alignment to a single location were used for further analysis. Enrichment of H3K4me3 was performed on individual donors and cell types using GLITR (FDR=5%) (32) and a pool of human input from various tissues. GLITR was also run on islet cell input samples and any peaks identified in the inputs were filtered from the H3K4me3 enriched regions. Enriched regions in the H3K27me3 data were identified using the program STAR (33) with a sliding window of 5,000 bp, step size of 1,000 bp, and a FDR=0.5%. To ensure fair comparison, H3K4me3 and H3K27me3 profiles from CD4-positive T-cells (23) were determined using the same algorithms and settings.
# as §3
# The high incidence of bivalent marks in α-cells, the interesting bivalent pattern of β-cell and α-cell-specific transcription factors in α-cells, and the large overlap with bivalently-marked transcriptional regulators in hESC raised the likelihood that epigenomic manipulations could be exploited to reprogram human α-cells towards the β-cell phenotype. Several drugs, such as adenosine dialdehyde (Adox) and 3-Deazaneplanocin A (DZNep) interfere with histone methylation (24). The general histone methyltransferase inhibitor Adox, which amongst others decreases H3K27me3 levels (24), was employed to test whether modulation of the histone methylation status of human pancreatic islets could promote reprogramming. […]
# human islets = assay: Immunofluorescent confocal analysis of Adox-treated human islets; format: cell-based
# Description: as §3
# Immunofluorescent confocal analysis was performed as described previously (Gao et al., Genes Dev. 2010, Jun. 15, 24(12): 1295-305). Sections were blocked with CAS-Block (Invitrogen, 00-8120) and stained using guinea pig anti-insulin 1:500 (Abcam, ab7842), rabbit anti-glucagon 1:250 (Santa Cruz, sc13091), guinea-pig anti-Pdx1 1:1000 (gift from Dr. C. Wright), mouse anti-E-Cadherin 1:500 (BD Transduction Laboratories, 610181), goat anti-GFP (Abcam, ab6673), guinea pig Cy2, guinea pig Cy5, rabbit Cy3, mouse Cy2, mouse Cy5, goat Cy3 (1:500, Jackson-Immunoresearch) antibodies. For quantification of double PDX1+/GCG+ cells, Pdx1-, Glucagon-, E-Cadherin and DAPI staining were performed on untreated (control) and Adox-treated islets. All glucagon-positive cells and all double PDX1+/GCG+ cells were counted manually (8 slides) in each condition and the percentage of PDX1+/GCG+ double-positive cells of all glucagon-positive cells was calculated.
# [3] = system: islets from GlucagonCre; Rosa26EYFP mice; assay: Lineage tracing: immunostaining of Adox-treated islets from GlucagonCre; Rosa26EYFP mice; format: cell-based; conditions: mouse islets treated with Adox in vitro; not observed in control islets
# Description: as §3
# Immunofluorescent confocal analysis was performed as described previously (Gao et al., Genes Dev. 2010, Jun. 15, 24(12): 1295-305). […] For quantification of double PDX1+/GCG+ cells, Pdx1-, Glucagon-, E-Cadherin and DAPI staining were performed on untreated (control) and Adox-treated islets. All glucagon-positive cells and all double PDX1+/GCG+ cells were counted manually (8 slides) in each condition and the percentage of PDX1+/GCG+ double-positive cells of all glucagon-positive cells was calculated.
# A priori, the co-localization of glucagon with insulin could be due to α- to β-cell fate or β- to α-cell fate conversion. […] For this purpose, islets from GlucagonCre; Rosa26EYFP mice were treated, in which α-cells are permanently marked by yellow fluorescence protein (YFP) expression (27, 28) with Adox in vitro. […]
# [4] = whole human islets, 50μM Adox 72 h vs untreated
compound,measurement,setting,value
"CCTCCTTCCTTGCCAACGCTGGCT (double strand) [CDKN2A (p16) promoter TALE target, 24 bp]",activity (% average increase in CpG methylation),[1],17
"TCCTTGCCAACGCTGGCT (double strand) [CDKN2A (p16) promoter jTALE target, 18 bp]",activity (% average increase in CpG methylation),[2],10
"Nc1ncnc2c1ncn2C(C=O)OC(C=O)CO (stereo not shown) [Adox, adenosine dialdehyde]",ARX expression level,human β-cells,no change
same,MAFA expression level,human β-cells,decrease
same,NKX6-1 expression level,human β-cells,decrease
same,glucagon (GCG) expression level,human β-cells,no change
same,insulin (INS) expression level,human β-cells,no change
same,ARX expression level,human α-cells,increase
same,MAFA expression level,human α-cells,slight decrease
same,NKX6-1 expression level,human α-cells,slight decrease
same,PDX1 expression level,human α-cells,increase
same,glucagon (GCG) expression level,human α-cells,no change
same,insulin (INS) expression level,human α-cells,no change
same,H3K4me3-enrichment (FIG. 9A legend),H3K27me3; human islets treated with Adox,decrease
same,H3K27me3 enrichment at genes carrying a bivalent or monovalent H3K27me3 mark in all pancreatic cell populations,H3K27me3; [4],strong decrease
same,"H3K27me3 enrichment at the ARX, MAFA and PDX1 loci",H3K27me3; [4],decrease; also recorded: decreased H3K27me3 levels
same,co-localization of glucagon and insulin granules within the same islet cell,"human islets; 50μM Adox 72 h, not seen in untreated islets",occasional co-occurrence of glucagon and insulin granules within the same islet cell; also recorded: co-localization of glucagon and insulin granules within the same cell; also recorded: co-localization of glucagon and insulin granules in pancreatic cells
same,PDX1 expression in glucagon-positive cells (PDX1+/GCG+ double-positive cells),human islets; 50μM Adox 72 h vs untreated,nuclear PDX1-expression in many glucagon-positive cells; also recorded: many double-positive cells
same,insulin granules in YFP+ (lineage-labeled α) cells,[3],occurrence of insulin granules in YFP+ cells
